Experiment: recombinant barcode read abundance after kanamycin selection (control-corrected) (log10(CPM+1)); higher = more efficient recombination; sequences stand for … in AGTGCAGAGAAAATCGGCCAGTTTTCTCTGCCTGCAGTCCGCATGCCGT…ATTTATGCAGCGGACTGCCTTTCTCCCAAAGTGATAAACCGGACAGTATCATGGACCGGTTTTCCCGGTAATCCGTATTTGCAAGGTTGGTTTCACT; site = the 11-nt target
In short: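 Pooled E. coli screen pairing targets with IS621 bridge RNA target-binding loops. Each oligo (promoter, target, barcode, J23119-driven first 104 bridge RNA bases) was Gibson-cloned into a vector with the remaining 73 bp and T7-inducible recombinase, then co-electroporated with a donor plasmid. Two replicates each were plated on chloramphenicol/ampicillin LB agar (control) or chloramphenicol/ampicillin/kanamycin with 0.1 mM IPTG. Recombination efficiency is recombinant-junction barcode counts as CPM, averaged, control-corrected, reported as log10(CPM+1).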
In the case of “TGTATTCCCTGGGTTCTAACCTGTTGCCTAG [TGTATTCCTAG_LTGcore_CC_RTGcore_CT] (site TGTATTCCTAG) (LTG core: CC, RTG core: CT)”, the “recombinant barcode read abundance (log10)” value is reported as 0.168. In the case of “TGTATTCCTTGGGTTCTAACCTGTTGCCTCG [TGTATTCCTAG_LTGcore_CT_RTGcore_CG] (site TGTATTCCTAG) (LTG core: CT, RTG core: CG)”, the “recombinant barcode read abundance (log10)” value is reported as 0.161. In the case of “TGTATTCCTTGGGTTCTAACCTGTTGCCTGA [TGTATTCCTAG_LTGcore_CT_RTGcore_TC] (site TGTATTCCTAG) (LTG core: CT, RTG core: TC)”, the “recombinant barcode read abundance (log10)” value is reported as 0.0266. For “TGTATTCCTTGGGTTCTAACCTGTTGCCTTC [TGTATTCCTAG_LTGcore_CT_RTGcore_GA] (site TGTATTCCTAG) (LTG core: CT, RTG core: GA)”, the “recombinant barcode read abundance (log10)” value was 0.0942. In the case of “TGTATTCGCTGGGTTCTAACCTGTTGCCTGC [TGTATTCCTAG_LTGcore_GC_RTGcore_GC] (site TGTATTCCTAG) (LTG core: GC, RTG core: GC)”, the “recombinant barcode read abundance (log10)” value is reported as 0.312. In the case of “TGTATTCTGTGGGTTCTAACCTGTTGCCTCA [TGTATTCCTAG_LTGcore_TG_RTGcore_TG] (site TGTATTCCTAG) (LTG core: TG, RTG core: TG)”, the “recombinant barcode read abundance (log10)” value is reported as 0.205. For “TTATAAAAGTGGGTTCTAACCTGTTGCCTAG [TTATAAACTAG_LTGcore_AG_RTGcore_CT] (site TTATAAACTAG) (LTG core: AG, RTG core: CT)”, the “recombinant barcode read abundance (log10)” value was 0.0357. In the case of “TTATAAACATGGGTTCTAACCTGTTGCCTAG [TTATAAACTAG_LTGcore_CA_RTGcore_CT] (site TTATAAACTAG) (LTG core: CA, RTG core: CT)”, the “recombinant barcode read abundance (log10)” value is reported as 0.314. In the case of “TTATAAACGTGGGTTCTAACCTGTTGCCTAG [TTATAAACTAG_LTGcore_CG_RTGcore_CT] (site TTATAAACTAG) (LTG core: CG, RTG core: CT)”, the “recombinant barcode read abundance (log10)” value is reported as 0.111. For “TTATAAACTTGGGTTCTAACCTGTTGCCTAA [TTATAAACTAG_LTGcore_CT_RTGcore_TT] (site TTATAAACTAG) (LTG core: CT, RTG core: TT)”, the “recombinant barcode read abundance (log10)” value was 0.0141. For “TTATAAAGATGGGTTCTAACCTGTTGCCTAG [TTATAAACTAG_LTGcore_GA_RTGcore_CT] (site TTATAAACTAG) (LTG core: GA, RTG core: CT)”, the “recombinant barcode read abundance (log10)” value was 0.0604. For “TTATAAAGTTGGGTTCTAACCTGTTGCCTAC [TTATAAACTAG_LTGcore_GT_RTGcore_GT] (site TTATAAACTAG) (LTG core: GT, RTG core: GT)”, the “recombinant barcode read abundance (log10)” value was 0.0636. In the case of “TTATAAATGTGGGTTCTAACCTGTTGCCTCA [TTATAAACTAG_LTGcore_TG_RTGcore_TG] (site TTATAAACTAG) (LTG core: TG, RTG core: TG)”, the “recombinant barcode read abundance (log10)” value is reported as 0.0981.
